The test system of the experiment is P2X2/3 chimera (P2X2/3C). Description: Calcium uptake assay (P2X antagonist assay, agonist-induced calcium influx). It counts as cell-based. The text has this:
Human P2X3 (Accession no. NM_002559), P2X2 (Accession no. NM_170682) and Rat P2X3 (Accession no. NM_031075) and P2X2 (Accession no. NM_053656) are cloned into a mammalian expression vector (e.g., pcDNA5/TO or pcDNA3 Invitrogen). For coexpression of P2X2 and P2X3, the coding regions of both receptors were cloned into a bicistronic vector using methods similar to those described by Kawashima et al., Receptors Channels 5:53-60, 1998. The P2X2/3 chimera clone was created as described by Neelands et al, and then cloned into an expression vector as above. Receptors are expressed in cells (e.g., HEK293 or 1321N1) via transient transfection using standard lipid mediated transfection, or by creation of stable transfectants for each receptor. Cell lines are maintained in DMEM+5% Glutamax, the appropriate level of selective antibiotic, and 10% heat inactivated FBS.
The agonist EC50 is determined at the start of the assay and compound IC50 experiments are run using a set agonist concentration (EC50-90 depending on cell line) as stimulus. The agonists used are αβMeATP, ATP, or other ATP analogs. Compounds may be tested at concentrations ranging from 1 μM to 10 μM. Functional activity of compounds at the P2X receptor is determined by measuring their ability to inhibit agonist-induced calcium influx. Compounds may be tested for antagonist activity against the P2X2/3 chimera, the P2X3 homomer, or the P2X2/3 heteromer. To test for antagonist activity, cells expressing the appropriate receptor are seeded onto 96 or 384 well plates 18-24 hours prior to assay. On the day of the assay, cells are loaded with calcium-sensitive fluorescent dye (e.g., Fluo-4 no wash reagent-Invitrogen cat# F36206, or the BD™ PBX Calcium Assay Kit-BD cat#640175) in Hank's Buffered Salt Solution (HBSS) with up to 10 mM supplemental CaCl2. Plates are incubated at 37° C. and then equilibrated at room temperature. Antagonism of agonist-induced calcium influx is measured using a fluorescent imaging plate reader. The assay comprises two stages: a pre-treatment phase followed by a treatment phase. Compounds may be tested as follows: For the pre-treatment phase, 50 μL of 3× concentration of test compound in HBSS is added to cells containing 100 μL of dye loading media to achieve a final concentration of 1×. For the treatment phase, at a set interval after pre-treatment, 50 μL of 1× test compound plus 4× agonist solution is added to cells. Fluorescence is measured at 0.1-3 second intervals with an excitation wavelength of 494 nm and an emission wavelength of 515 nm. Responses are measured as peak fluorescence after compound-agonist addition minus baseline fluorescence prior to treatment. Percent inhibition is calculated as follows: […]
A calcium uptake assay was performed as described in paragraphs […] above.

[1] abbreviates: at 3 μM (symbol before the slash).
[2] abbreviates: at 10 μM (symbol after the slash).

The structures appear in SMILES notation. Counter-ions that a name gives are not always drawn.

For `Clc1cccnc1N1CCc2ncnc(Nc3ccccc3)c2C1` [Compound 2, 6-(3-Chloropyridin-2-yl)-5,6,7,8-tetrahydro-N-phenylpyrido[4,3-d]pyrimidin-4-amine], under setting [1], the “Ca Influx P2X2/3C % Inhibition at 3 μM/10 μM” value (from here on “Ca Influx P2X2/3C % Inhibition”) is on record as “+/ (compound exhibited 0-25% inhibition at 3 μM)”.
Turning to `FC(F)(F)c1ccc(Nc2ncnc3c2CN(c2ncccc2Cl)CC3)cn1` [Compound 4, 6-(3-Chloropyridin-2-yl)-N-(6-(trifluoromethyl)pyridin-3-yl)-5,6,7,8-tetrahydropyrido[4,3-d]pyrimidin-4-amine], the “Ca Influx P2X2/3C % Inhibition” value under setting [2] is given as “/* (compound exhibited 0-25% inhibition at 10 μM)”.
Take `O=S(=O)(c1ccc(Nc2ncnc3c2CN(c2ncccc2Cl)CC3)cc1)C(F)(F)F` [Compound 6, 6-(3-Chloropyridin-2-yl)-5,6,7,8-tetrahydro-N-(4-(trifluoromethylsulfonyl)phenyl)pyrido[4,3-d]pyrimidin-4-amine]: the “Ca Influx P2X2/3C % Inhibition” value under setting [1] is reported as “+/ (compound exhibited 0-25% inhibition at 3 μM)”.
Regarding `Cc1ccccc1N1CCc2ncnc(Nc3ccc(C(F)(F)F)cc3)c2C1` [Compound 10, N-(4-(Trifluoromethyl)phenyl)-5,6,7,8-tetrahydro-6-o-tolylpyrido[4,3-d]pyrimidin-4-amine], the “Ca Influx P2X2/3C % Inhibition” value under setting [2] is recorded as “/* (compound exhibited 0-25% inhibition at 10 μM)”.
The same measure, in the same setting: with `Cc1ccc(N2CCc3ncnc(Nc4ccc(C(F)(F)F)cc4)c3C2)cc1` [Compound 12, N-(4-(Trifluoromethyl)phenyl)-5,6,7,8-tetrahydro-6-p-tolylpyrido[4,3-d]pyrimidin-4-amine] the entry was “/* (compound exhibited 0-25% inhibition at 10 μM)”; with `CC1(C)C(=O)Nc2cc(Nc3ncnc4c3CN(c3ncccc3Cl)CC4)ccc21` [Compound 13, 6-[6-(3-Chloro-pyridin-2-yl)-5,6,7,8-tetrahydro-pyrido[4,3-d]pyrimidin-4-ylamino]-3,3-dimethyl-1,3-dihydro-indol-2-one], “/* (compound exhibited 0-25% inhibition at 10 μM)”; with `CC1(C)CNc2cc(Nc3ncnc4c3CN(c3ncccc3Cl)CC4)ccc21` [Compound 15, [6-(3-Chloro-pyridin-2-yl)-5,6,7,8-tetrahydro-pyrido[4,3-d]pyrimidin-4-yl]-(3,3-dimethyl-2,3-dihydro-1H-indol-6-yl)-amine HCl salt], “/* (compound exhibited 0-25% inhibition at 10 μM)”.
Consider `CN1CC(C)(C)c2ccc(Nc3ncnc4c3CN(c3ncccc3Cl)CC4)cc21` [Compound 16, [6-(3-Chloro-pyridin-2-yl)-5,6,7,8-tetrahydro-pyrido[4,3-d]pyrimidin-4-yl]-(3,3-dimethyl-2,3-dihydro-1-methyl-indol-6-yl)-amine], for which, under setting [1], the “Ca Influx P2X2/3C % Inhibition” value is “+/ (compound exhibited 0-25% inhibition at 3 μM)”.
Consider `CC(C)(C)c1ccc(Nc2ncnc3c2CN(c2ncccc2Cl)CC3)cn1` [Compound 17, (6-tert-Butyl-pyridin-3-yl)-[6-(3-chloro-pyridin-2-yl)-5,6,7,8-tetrahydro-pyrido[4,3-d]pyrimidin-4-yl]-amine], for which the “Ca Influx P2X2/3C % Inhibition” value under setting [2] was “/* (compound exhibited 0-25% inhibition at 10 μM)”.
The same measure, in the same setting: the value for `Cc1ccc(N2CCc3ncnc(NCC4(O)CCCC(C)(C)C4)c3C2)nc1` (stereo not drawn) [Compound 18, 3,3-Dimethyl-1-{[6-(5-methyl-pyridin-2-yl)-5,6,7,8-tetrahydro-pyrido[4,3-d]pyrimidin-4-ylamino]-methyl}-cyclohexanol] was “/* (compound exhibited 0-25% inhibition at 10 μM)”; that for `Cc1ccc(N2CCc3ncnc(NCc4ccccc4C)c3C2)nc1` [Compound 24] was “/**** (compound exhibited 25-50% inhibition at 10 μM)”.
With `Cc1ccc(N2CCc3ncnc(NCc4ccc(Cl)cc4)c3C2)nc1` [Compound 25], the “Ca Influx P2X2/3C % Inhibition” value under setting [1] is given as “++++/ ^ (compound exhibited 75% or greater inhibition at 3 μM)”.
Regarding `Cc1ccc(N2CCc3ncnc(NCC4CCCCC4)c3C2)nc1` [Compound 26], the “Ca Influx P2X2/3C % Inhibition” value under setting [2] is “/**** (compound exhibited 25-50% inhibition at 10 μM)”.
The same measure, in the same setting: with `COc1ccccc1CNc1ncnc2c1CN(c1ccc(C)cn1)CC2` [Compound 27] the entry was “/**** (compound exhibited 25-50% inhibition at 10 μM)”.
Turning to `COc1cccc(CNc2ncnc3c2CN(c2ccc(C)cn2)CC3)c1` [Compound 28], the “Ca Influx P2X2/3C % Inhibition” value under setting [1] is listed as “++++ (compound exhibited 75% or greater inhibition at 3 μM)” and the “Ca Influx P2X2/3C % Inhibition” value under setting [2] was “**** (compound exhibited 25-50% inhibition at 10 μM)”.
Turning to `Cc1ccc(N2CCc3ncnc(NCc4ccccc4Cl)c3C2)nc1` [Compound 30], the “Ca Influx P2X2/3C % Inhibition” value under setting [1] was “++++/ ^ (compound exhibited 75% or greater inhibition at 3 μM)”.
Turning to `Cc1ccc(N2CCc3ncnc(NCCc4ccccc4Cl)c3C2)nc1` [Compound 32], the “Ca Influx P2X2/3C % Inhibition” value reads like this: under setting [1], “++++ (compound exhibited 75% or greater inhibition at 3 μM)”; under setting [2], “**** (compound exhibited 25-50% inhibition at 10 μM)”.
With `COc1ccc(CCNc2ncnc3c2CN(c2ccc(C)cn2)CC3)cc1` [Compound 35], under setting [1], the “Ca Influx P2X2/3C % Inhibition” value was “++++/ ^ (compound exhibited 75% or greater inhibition at 3 μM)”.
Same read-out and setting: with `Cc1ccc(N2CCc3ncnc(N(C)Cc4ccccc4)c3C2)nc1` [Compound 36] the entry was “+/ (compound exhibited 0-25% inhibition at 3 μM)”; with `Cc1ccc(N2CCc3ncnc(NCc4ccc5c(c4)OCO5)c3C2)nc1` [Compound 37], “++++/ ^ (compound exhibited 75% or greater inhibition at 3 μM)”; with `Cc1ccc(N2CCc3ncnc(NCc4cccc(C(F)(F)F)c4)c3C2)nc1` [Compound 38], “+++/ ^ (compound exhibited 50-75% inhibition at 3 μM)”.
Still for that read-out and setting: with `Cc1ccc(N2CCc3ncnc(NCc4ccccc4C(F)(F)F)c3C2)nc1` [Compound 39] the entry was “+++/ ^ (compound exhibited 50-75% inhibition at 3 μM)”; with `Cc1ccc(N2CCc3ncnc(NCc4ccc(OC(F)(F)F)cc4)c3C2)nc1` [Compound 40], “+++/ ^ (compound exhibited 50-75% inhibition at 3 μM)”.
On the same count and under the same terms, the value for `Cc1ccc(N2CCc3ncnc(NCc4ccccc4OC(F)(F)F)c3C2)nc1` [Compound 42] was “++++/ ^ (compound exhibited 75% or greater inhibition at 3 μM)”.
Take `Cc1ccc(N2CCc3ncnc(NCc4ccc(C(C)(C)C)cc4)c3C2)nc1` [Compound 44]: the “Ca Influx P2X2/3C % Inhibition” value under setting [1] is recorded as “+/ (compound exhibited 0-25% inhibition at 3 μM)”.
On the same count and under the same terms, the value for `Cc1ccc(N2CCc3ncnc(NCCc4ccccc4)c3C2)nc1` [Compound 45] was “++++/ ^ (compound exhibited 75% or greater inhibition at 3 μM)”.
On the same count and under the same terms, with `COc1cccc(CCNc2ncnc3c2CN(c2ccc(C)cn2)CC3)c1` [Compound 46] the entry was “++++/ ^ (compound exhibited 75% or greater inhibition at 3 μM)”.
Same read-out and setting: the value for `COc1ccc(CCNc2ncnc3c2CN(c2ccc(C)cn2)CC3)cc1OC` [Compound 47] was “+++/ ^ (compound exhibited 50-75% inhibition at 3 μM)”; that for `Cc1ccc(N2CCc3ncnc(NCCc4ccc(Cl)cc4)c3C2)nc1` [Compound 48] was “++++/ ^ (compound exhibited 75% or greater inhibition at 3 μM)”; that for `Cc1ccc(CCNc2ncnc3c2CN(c2ccc(C)cn2)CC3)cc1` [Compound 49] was “++++/ ^ (compound exhibited 75% or greater inhibition at 3 μM)”.
For `Cc1ccc(N2CCc3ncnc(NCc4ccc(C(F)(F)F)cc4)c3C2)nc1` [Compound 50], the “Ca Influx P2X2/3C % Inhibition” value under setting [1] is “++++/ ^ (compound exhibited 75% or greater inhibition at 3 μM)”.
The same measure, in the same setting: with `COc1cc(CCNc2ncnc3c2CN(c2ccc(C)cn2)CC3)cc(OC)c1` [Compound 51] the entry was “+++/ ^ (compound exhibited 50-75% inhibition at 3 μM)”; with `Cc1ccc(N2CCc3ncnc(NCc4ccccc4OC(F)F)c3C2)nc1` [Compound 52], “++++/ ^ (compound exhibited 75% or greater inhibition at 3 μM)”; with `COc1ccc(CNc2ncnc3c2CN(c2ccc(C)cn2)CC3)cc1` [Compound 53], “++++/ ^ (compound exhibited 75% or greater inhibition at 3 μM)”.

Source of the values: US8859545B2, “Tetrahydronaphthyridine and tetrahydropyrido[4,3-D]pyrimidine compounds and compositions thereof useful for the treatment of inflammatory and respiratory diseases” (Evotec AG, priority 2005, dated 2014).
